Source: patent publication US12697316B2, “Combination therapy with acetyl-leucine and miglustat” (INTRABIO LTD., priority 2019, dated 2026)

Assays:
Sandhoff (Hexb^−/−) mice = experiment: Survival of Sandhoff (Hexb−/−) mice; assay type: in vivo, mouse; conditions: Hexb−/− mice treated from weaning, 0.1 g/kg/day
Protocol: BALBc/NPC ^h and Sandhoff mice were bred as heterozygotes to generate affected mice (Npc1^−/−, Hexb^−/−) and controls (Npc^+/+, Hexb^+/+). The mice were housed under non-sterile conditions, with food and water available ad libitum. All experiments were conducted using protocols approved by the UK Home Office Animal Scientific Procedures Act, 1986.
[…] Treatment groups for in vivo study consisted of at least 5 mice per group. In vitro studies were conducted with each compound dissolved in PBS to generate a 50 mM stock solution and diluted to a 1 mM working concentration in media (DMEM High Glucose-Gibco #10566016).
The weight and activity of each mouse was recorded weekly until reaching the humane endpoint (defined as a loss of 1 g body weight within 24 h). Gait analysis was performed using CatWalk 10.5 system (Noldus) according to the manufacturer's instructions and five runs were recorded per animal at each time point. The camera was set to 40 cm below the walkway, the walkway was approximately 4 cm wide, and detection settings set to camera gain 14.05 and green intensity 0.12. Motor function was measured using an accelerating NG Rota Rod for mice (Ugo Basile) starting from 1 rpm to 10 rpm, accelerating every 30 seconds by one rpm. […] Latency to cross or fall from the bar was scored, with 120 sec, maximum, to termination of each trial. […]

NPC patients = experiment: Observational clinical study of adult NPC patients treated with ADLL; assay type: in vivo, human
Description: Progression of a LSD or one or more symptoms of a LSD over time or through treatment can be monitored, for example, using one or more known tests at two or more time points and comparing the results. Disease progression and/or severity can be assessed, for example, using the Scale for the Assessment and Rating of Ataxia (SARA), Spinocerebellar Ataxia Functional Index (SCAFI), the International Cooperative Ataxia Rating Scale (ICARS), the brief ataxia rating scale (BARS), the modified Disability Rating Scale (mDRS), EuroQol 5Q-5D-5L (EQ-5D-5L), the visual analogue scale (VAS), Wechsler Adult Intelligence Scale-Revised (WAIS-R), Wechsler Intelligence Scale for Children-IV (WISC-IV), Montreal Cognitive Assessment (MoCA) or other suitable tests. For certain LSDs, such as NPC, particular scores have been developed and validated over the last decades, for instance the clinical severity score (CSS) and annual severity increment score (ASIS) (see Yanjanin et al., “Linear Clinical Progression, Independent of Age of Onset, in Niemann—Pick Disease, Type C,” Am J Med Genet Part B 153B:132-140) and the modified 6-Domain NP-C disability Scale (mDRS score). For example, an NPC patient's severity can be quantified by assigning a CSS, which assesses various parameters of the disease (ambulation, seizures, eye movement, etc.) and gives each parameter a score out of 5. A higher score equals a greater severity. The ASIS quantifies the annual rate of change in the CSS, calculated by dividing the CSS by the patient's age. In this regard, certain scores in these tests are characteristic of symptomatic LSD patients and evidence disease progression and/or severity.
Demographics and statistical analysis of a clinical observational study of adult NPC patients treated with ADLL: The cohort comprised 3 females and 10 males. Consent from all participants was obtained. Twelve of the NPC patients were on miglustat therapy (minimum exposure 2.65, 1t^st quartile 3.44, median 4.92, mean 4.87, 3rd quartile 5.80 and maximum 7.98 years). The thirteen NPC1 patients participated in an observational study treated with 5 g/day acetyl-DL-leucine (Tanganil™). Three patients had four prospective clinical severity score measurements and ten patients had five measurements taken during this observational study (NIH, CSS). Retrospective data were used to calculate rates of disease progression prior to recruitment to this study. The mean age at the start of acetyl-DL-leucine (Tanganil™) treatment was 26.59 years. The minimum age was 15.44, 1s^t quartile 20.97, median 26.98 and third quartile 30.79 with maximum age 37.37 years. The time in the observational treatment study was a […], 1st quartile 0.81, median 1, mean 0.95, third quartile 1.13 and maximum 1.21 years.

[1] = number of the 13 treated NPC patients, neurological subdomain

CC(=O)NC(CC(C)C)C(=O)O (racemic) [ADLL, N-acetyl-DL-leucine]
median increase in lifespan (Sandhoff (Hexb^−/−) mice): 8 days | mean change in Annual Severity Increment Scores (ASIS) (NPC patients; 13 NPC patients): −9.1 %/year | average slope of disease progression (total clinical severity score) following initiation of treatment (NPC patients; 13 adult NPC patients, 5 g/day, 12 also on miglustat, average slope before treatment 1.8): −1.78 severity units/year | Ambulation: Deteriorated (NPC patients; [1]): 1 | Ambulation: Improved (NPC patients; [1]): 8 | Ambulation: Stable (NPC patients; [1]): 4 | Cognition: Deteriorated (NPC patients; [1]): 1 | Cognition: Improved (NPC patients; [1]): 6 | Cognition: Stable (NPC patients; [1]): 6 | Eye movement: Deteriorated (NPC patients; [1]): 1 | Eye movement: Improved (NPC patients; [1]): 8 | Eye movement: Stable (NPC patients; [1]): 4 | Fine motor skills: Deteriorated (NPC patients; [1]): 2 | Fine motor skills: Improved (NPC patients; [1]): 8 | Fine motor skills: Stable (NPC patients; [1]): 3 | Memory: Deteriorated (NPC patients; [1]): 1 | Memory: Improved (NPC patients; [1]): 10 | Memory: Stable (NPC patients; [1]): 2 | Speech: Deteriorated (NPC patients; [1]): 3 | Speech: Improved (NPC patients; [1]): 3 | Speech: Stable (NPC patients; [1]): 7 | Swallow: Deteriorated (NPC patients; [1]): 1 | Swallow: Improved (NPC patients; [1]): 10 | Swallow: Stable (NPC patients; [1]): 2 | patients with negative slopes following initiation of treatment (NPC patients; of 13 NPC patients): 10 | patients with no slope following initiation of treatment (NPC patients; of 13 NPC patients): 3
